The record followed here is patent US20110040086A1, “Novel Beta-Lactam Antibiotics, Methods for Their Production, and Their Use” (DRITTE PATENTPORTFOLIO BETEILIGUNGSGESELLSCHAFT MB, priority 2007, published 2011).

The test system of one series is S. epidermidis 125. Description: agar diffusion test (Test System II, multi-resistant germs). The series is classed as cell-based, Staphylococcus epidermidis. In outline:
(§1)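 Müller-Hinton II plates spread in three directions with McFarland 0.5 bacterial suspension carry three sensi-discs with 10, 50 and 100 μg substance from methanol or water. After 18-20 h at 37 °C, zone-of-inhibition diameters are measured.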
(In agar diffusion tests the substance spreads into inoculated agar from a disc or well.)

The test system of another series is S. epidermidis 847. Described as above. The series is classed as cell-based, Staphylococcus epidermidis. Set-up: key: r = resistant (no detectable zone of inhibition). The procedure, abridged: as §1
Series [1] deals with Staphylococcus aureus ATCC 6538. Briefly: mouse infected with Staphylococcus aureus infection model (survival). Format: in vivo, BALB/c mice. Conditions: 2 × 1.0 mg (50 mg/kg) i.p. On the procedure: Method for Effectiveness In Vivo with the Mouse Infected with Staphylococcus aureus Model
On Day 0, at least 3 BALB/c mice per test substance (Table 8) or controls are pretreated with cyclophosphamide (250 mg/kg) in 250 μl PBS inta peritoneal (i.p.).
On Day 2, the animals again received 100 mg/kg i.p.
On Day 2, a colony of the test germ is transferred from a growing agar plate (Müller-Hinton-Agar, Beckton Dickinson) into a flask with 10 ml CASO broth (CASO-B., Soyabean peptone-Casein peptone broth, SIFIN, 30 g/l) and is cultivated overnight at 37° C. and a shaking frequency of 250 rpm.
On Day 3, the pre-culture (Vk) is diluted 1:50 with CASO-B and further cultivated ca. 2 hours until an extinction in the medium of 0.6 at a wavelength of 550 nm is reached. Then, it is grown 1× with PBS at room temperature and set again to an extinction of 0.6.
At least 3 animals for a test substance or controls are infected with 10 μl/g body weight grown germs of a bacteria suspension with the extinction 0.6 (ca. 10^10-10^12 CFU, Colony forming units) i.p.
After 30 minutes, antibiotic solution is injected into the mice in a volume of 200 μl PBS with 3% DMSO i.p. 6 hours later, the second antibiotic injection is performed at the same concentration. […]

The subject of another series is S. aureus 36881. Description: agar diffusion test (Test System II, multi-resistant germs). On the set-up: key: r = resistant (no detectable zone of inhibition). The series is classed as cell-based, Staphylococcus aureus. In outline: as §1
The next series deals with S. aureus 520. The series is described as above. Format: cell-based, Staphylococcus aureus. Set-up: key: r = resistant (no detectable zone of inhibition). In outline:
as §1

Series [2] deals with S. aureus North Germany strain. Described as above. The series is classed as cell-based, Staphylococcus aureus. Set-up: key: r = resistant (no detectable zone of inhibition). The procedure, abridged: as §1
Series [3] concerns Enterococcus faecalis 769. The description is as above. Format: cell-based. Set-up: key: r = resistant (no detectable zone of inhibition). In outline:
as §1

The subject of series [4] is Staphylococcus aureus 315. The series is described as above. The series is classed as cell-based. Set-up: key: r = resistant (no detectable zone of inhibition). In outline:
as §1

The test system of the next series is S. aureus 38418. The description is as above. Format: cell-based, Staphylococcus aureus. The procedure, abridged:
as §1

The next series has as its system S. aureus ATCC 6538. The series is described as above. Format: cell-based, Staphylococcus aureus. In outline:
as §1

Series [5] is described as follows: logP value by HPLC according to Donovan et al. The following applies: for chromatographic logP: HPLC with methanol/0.1% phosphoric acid gradient, pH 2. On the procedure:
• Operating temperature 18-24° C. • Flow 1.5 mL/min • Linear gradient (methanol/0.1% phosphoric acid pH 2) from 10% to 100% methanol in 9.4 min, equilibrium time between 2 runs 6 min
ca. 0.5 mg of analyte is added to 0.5 ml of a standard solution (440 mg methyl phenyl sulfonate and 380 μl toluene in 150 mL methanol). 2 μl of this sample solution is injected.
Because the distribution coefficients of the two standards running in each test are known, the distribution coefficient of the analytes can be determined from the relationships of the analyte/standard retention times.

Regarding “3-chlorine-7-[2-(2-methoxycarbonyl-3,6-dioxocyclohexa-1,4-dienylamino)-2-phenyl-acetylamino]-8-oxo-5-aza-bicyclo[4.2.0]oct-3-ene-4-carboxylic acid [1o]”, the “Diameter of zone of inhibition” value in the series with S. epidermidis 125 (Quantity n 0.019) is recorded as 14 mm; in the series on S. epidermidis 125 (Quantity n 0.094) it was 20 mm; in the series on S. epidermidis 125 (Quantity n 0.19) it was 24 mm; with S. epidermidis 847 (Quantity n [mol] 0.019) it was “r”; in the series on S. epidermidis 847 (Quantity n [mol] 0.094), 14 mm; in the series on S. epidermidis 847 (Quantity n [mol] 0.19), 18 mm. Also, the “Diameter of zone of inhibition” value is recorded as “r” with S. aureus 36881 (Quantity n 0.019); “r” in the series on S. aureus 36881 (Quantity n 0.094); 12 mm with S. aureus 36881 (Quantity n 0.19); “r” with S. aureus 520 (Quantity n [mol] 0.019); “r” in the series with S. aureus 520 (Quantity n [mol] 0.094); “r” in the series on S. aureus 520 (Quantity n [mol] 0.19). Also, the “Diameter of zone of inhibition” value in series [2] (Quantity n 0.019) was “r”; in [2] (Quantity n 0.094), “r”; in series [2] (Quantity n 0.19), 12 mm; in series [3] (Quantity n 0.019), “r”; in [3] (Quantity n 0.094) it was “r”; in [3] (Quantity n 0.19), “r”. Also, the “Diameter of zone of inhibition” value in series [4] (Quantity n 0.019) is listed as “r”; in series [4] (Quantity n 0.094), “r”; in series [4] (Quantity n 0.19) it was 10 mm; in the series with S. aureus 38418 (Quantity n [mol] 0.019) it was 14 mm; with S. aureus 38418 (Quantity n [mol] 0.094), 14 mm; in the series with S. aureus 38418 (Quantity n [mol] 0.19) it was 28 mm. Besides, the figures for the “Diameter of zone of inhibition” value in the series on S. aureus ATCC 6538 (Quantity n 0.019), with S. aureus ATCC 6538 (Quantity n 0.094) and in the series with S. aureus ATCC 6538 (Quantity n 0.19) were 22 mm, 28 mm and 30 mm, respectively. Also, in series [1], the Survival/tested mice n/n is 2/3.
With `CCOC(=O)C1=C(NC(C(=O)NC2C(=O)C3CC(Cl)=C(C(=O)O)NC32)c2ccccc2)C(=O)C=CC1=O` (stereo not drawn) [1p, 3-chlorine-7-[2-(2-ethoxycarbonyl-3,6-dioxocyclohexa-1,4-dienylamino)-2-phenyl-acetylamino]-8-oxo-5-azabicyclo[4.2.0]oct-3-ene-4-carboxylic acid], the “Diameter of zone of inhibition” value is 16 mm in the series with S. epidermidis 125 (Quantity n 0.019); 26 mm in the series on S. epidermidis 125 (Quantity n 0.094); 28 mm in the series with S. epidermidis 125 (Quantity n 0.19); “r” in the series with S. epidermidis 847 (Quantity n [mol] 0.019); 16 mm in the series with S. epidermidis 847 (Quantity n [mol] 0.094); 20 mm in the series with S. epidermidis 847 (Quantity n [mol] 0.19). Besides, the “Diameter of zone of inhibition” value in the series with S. aureus 36881 (Quantity n 0.019) is reported as “r”; with S. aureus 36881 (Quantity n 0.094), 12 mm; in the series with S. aureus 36881 (Quantity n 0.19) it was 20 mm; in the series with S. aureus 520 (Quantity n [mol] 0.019), “r”; in the series on S. aureus 520 (Quantity n [mol] 0.094) it was “r”; in the series on S. aureus 520 (Quantity n [mol] 0.19), 8 mm. Moreover, the “Diameter of zone of inhibition” value was “r” in series [2] (Quantity n 0.019); “r” in [2] (Quantity n 0.094); 12 mm in [2] (Quantity n 0.19); “r” in [3] (Quantity n 0.019); “r” in series [3] (Quantity n 0.094); “r” in series [3] (Quantity n 0.19). Also, the “Diameter of zone of inhibition” value in series [4] (Quantity n 0.019) was “r”; in series [4] (Quantity n 0.094) it was “r”; in series [4] (Quantity n 0.19) it was 10 mm; in the series with S. aureus 38418 (Quantity n [mol] 0.019), 18 mm; in the series with S. aureus 38418 (Quantity n [mol] 0.094), 28 mm; in the series with S. aureus 38418 (Quantity n [mol] 0.19) it was more than 30 mm. The “Diameter of zone of inhibition” value in the series with S. aureus ATCC 6538 (Quantity n 0.019) stood at 22 mm; with S. aureus ATCC 6538 (Quantity n 0.094), 30 mm; in the series with S. aureus ATCC 6538 (Quantity n 0.19), 32 mm. Moreover, the Survival/tested mice n/n in [1] is 2/3.
In series [5], `O=C(NCCO)c1cc(O)ccc1O` [2,5-dihydroxy-N-(2-hydroxyethyl)benzamide] came in with a chromatographic logP of -1.21.
For `NC(=O)c1cc(O)ccc1O` [2,5-dihydroxybenzamide], the chromatographic logP in [5] was -0.4.
The same measure, in the same setting: next, `CCOC(=O)c1cc(O)ccc1O` [2,5-dihydroxybenzoic acid ethylester]: 2.65.
In series [5] (HPLC, methanol/0.1% phosphoric acid pH 2), `N[C@@H](C(=O)N[C@@H]1C(=O)N2C(C(=O)O)=C(Cl)CC[C@H]12)c1ccccc1` [2d, Loracarbef, reference compound] had a logP value of −3.13.

One may read the chromatographic logP as lipophilicity estimated from chromatographic retention.
